Assay results taken from US8173668B1 (Alcon Research, Ltd., priority 2007, dated 2012).

Key:
[1] = molecular target: T1, B2-receptors in h-CM cells (Homo sapiens, UniProt P30411); assay: [Ca2+]i mobilization (FLIPR) in h-CM cells, agonist mode; format: cell-based; details: h-CM cells, mean ± SEM
T1 construct: B2-receptor proteins in h-TM, h-CM and h-NPE cells; endogenous in cells; host or cells: human trabecular meshwork (h-TM), human ciliary muscle (h-CM) and human non-pigmented ciliary epithelial (h-NPE) cells
T1 sequence (P30411 1-391): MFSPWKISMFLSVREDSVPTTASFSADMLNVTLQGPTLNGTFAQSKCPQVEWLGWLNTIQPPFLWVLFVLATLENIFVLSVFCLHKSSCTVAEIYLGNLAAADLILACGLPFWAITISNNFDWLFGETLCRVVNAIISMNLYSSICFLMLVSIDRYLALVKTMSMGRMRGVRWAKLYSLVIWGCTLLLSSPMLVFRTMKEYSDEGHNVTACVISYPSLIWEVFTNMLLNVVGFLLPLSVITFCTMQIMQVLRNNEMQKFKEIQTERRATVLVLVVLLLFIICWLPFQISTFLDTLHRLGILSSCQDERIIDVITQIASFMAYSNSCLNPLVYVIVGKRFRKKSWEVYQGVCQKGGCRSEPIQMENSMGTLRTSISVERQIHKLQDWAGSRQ
Protocol: (§1) On the day of the experiment, one vial of FLIPR Calcium Assay Kit dye is re-suspended in 50 mL of a FLIPR buffer consisting of Hank's Balanced Salt Solution (HBSS), 20 mM HEPES, and 2.5 mM probenecid, pH 7.4. Cells are loaded with the calcium-sensitive dye by addition of an equal volume (50 μL) to each well of the 96-well plate and incubated with dye for 1 h at 23° C. After this time, the test compound plate and cell plate are placed in the FLIPR instrument. At the beginning of an experimental run, a signal test is performed to check the basal fluorescence signal from the dye-loaded cells and the uniformity of the signal across the plate. The basal fluorescence is adjusted between 8000-12000 counts by modifying the exposure time, the camera F-stop, or the laser power. Instrument settings for a typical assay are the following: laser power 0.3-0.6 W, camera F-stop F/2, and exposure time 0.4 sec.
(§2) Fluorescence data are collected in real-time at 1.0 sec intervals for the first 60 secs and at 6.0 sec intervals for an additional 120 secs. […] The data are then analyzed using an automated, iterative, sigmoidal curve-fitting computer program to obtain the potency and intrinsic activities of the test agents as previously described (Sharif et al. J. Pharmacol. Exp. Ther. 286: 1094-1102, 1998; Sharif et al. Invest. Ophthalmol. Vis. Sci. 39:2562-2571, 1998; Kelly et al. J. Pharmacol. Exp. Ther. 304: 238-245, 2003). The sources of materials and reagents for such assays can be found in the references cited above.

[2] = molecular target: T2, B2-receptors in h-NPE cells (Homo sapiens, UniProt P30411); assay: [Ca2+]i mobilization (FLIPR) in h-NPE cells, agonist mode; format: cell-based; details: h-NPE cells, mean ± SEM
T2 construct: B2-receptor proteins in h-TM, h-CM and h-NPE cells; endogenous in cells; host or cells: human trabecular meshwork (h-TM), human ciliary muscle (h-CM) and human non-pigmented ciliary epithelial (h-NPE) cells
T2 sequence (P30411 1-391): T1 sequence (P30411 1-391)
Protocol: as §1, §2

[3] = system: hypertensive eyes of cynomolgus monkeys; assay: IOP in lasered (hypertensive) eyes of cynomolgus monkeys, single dose (FIG. 9); format: in vivo; details: IOP at 8, 25 and 27.5 hours
Protocol: Hours 5 and 8 were conscious IOPs. Hours 25 and 27.5 were made under sedation. […] Error bars indicate standard deviations.
Intraocular pressure (IOP) was determined with an Alcon Pneumatonometer (Alcon Laboratories, Inc., Fort Worth, Tex.) after light corneal anesthesia with 0.1% proparacaine. Right eyes were hypertensive as a result of laser trabeculoplasty. After a baseline IOP measurement, FR-190997 was instilled in the right eyes only of 12 cynomolgus monkeys. Vehicle was instilled in the right eyes of 5-6 additional animals. Subsequent IOP measurements were taken at 8, 25, and 27.5 hours. IOP measurements are also taken on left eyes (normotensive and untreated) at each of these time points. The percent change in IOP from baseline was determined for each animal for every IOP measurement (Sharif et al. J. Ocular Pharmacol. Ther. 17: 305-317, 2001; May et al., J Pharmacol Exp Ther. 306: 301-309, 2003; Sharif et al. Invest. Ophthalmol. Vis. Res. 47: 4001-4010, 2006). Group mean and standard error of the mean (SEM) were calculated for each time point.

[4] = system: rabbits (New Zealand White and Dutch-Belted); assay: IOP-lowering activity in rabbits; format: in vivo
Description: Some obvious drawbacks and reasons for the lack of consistent observations noted above are probably related to species differences in the effects of BK on IOP changes and on the fact that BK is a labile peptide that can easily and rapidly be inactivated by kininases and other proteases when it comes into contact with body fluids (Hall, Pharmacol. Ther., 56, 131-190, 1992). Additionally, topical ocular administration of peptides such as BK are confounded by the potential lack of or little bioavailability through the cornea to reach the anterior segment of the eye. […] This is probably related to the attainment of a relevant concentration in the aqueous humor and ciliary body when the compound was administered topical ocularly.
IOP is determined with an applanation pneumatonometer after light corneal anesthesia with 0.1% proparacaine. After baseline IOP measurements are taken, one eye of each of 7-10 (or both eyes of 5) rabbits per compound dose is topically dosed with compound. Either the contralateral eye is dosed with vehicle or a separate group of rabbits is used for vehicle control. Subsequent IOP measurements are taken at 0.5, 1, 2, 3, and 4 hours. In cases where the compound has poor ocular bioavailability, the compound may need to be administered intracamerally or intravitreally in order to observe the IOP-lowering efficacy.

[5] = read-out: Intrinsic Activity (Emax, % max relative to BK)
[6] = read-out: Potency (EC50), [Ca2+]i mobilization

CNC(=O)c1ccc(/C=C/C(=O)NCC(=O)N(C)c2ccc(Cl)c(COc3cccc4c(OCc5ccccn5)cc(C)nc34)c2Cl)cc1 [FR-190997]
Emax [1, 5]: 63%
EC50 [1, 6]: 174 ± 21 nM
Emax [2, 5]: 32%
EC50 [2, 6]: 384 ± 39 nM
effect on IOP compared with vehicle [3]: lowered IOP compared with vehicle
ability to lower IOP [4]: unable to lower IOP
